Experiments:
CgLDC = target: T1, CgLDC (Colletotrichum gloeosporioides, UniProt A0A1X9J191); experiment: LC-MS detection of cadaverine (m/z […]); format: biochemical; conditions: pyridoxal phosphate 40 µg, potassium phosphate pH 8.0, 37 °C, 45 min; boiled enzyme as negative control
T1 construct: 256 residues, 28 kDa, cDNA 769 bp
T1 sequence (A0A1X9J191 62-294): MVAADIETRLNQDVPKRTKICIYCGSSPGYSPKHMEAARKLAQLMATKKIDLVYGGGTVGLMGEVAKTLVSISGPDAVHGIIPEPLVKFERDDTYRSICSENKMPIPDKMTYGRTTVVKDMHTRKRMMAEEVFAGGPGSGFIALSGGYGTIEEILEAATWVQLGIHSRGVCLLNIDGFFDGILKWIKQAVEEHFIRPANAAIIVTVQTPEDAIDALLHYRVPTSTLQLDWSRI

CgCAO = target: T2, CgCAO (Colletotrichum gloeosporioides, UniProt A0A191JKR0); experiment: LC-MS detection of delta1-piperideine (m/z […]); format: biochemical; conditions: 1 mM cadaverine, 50 mM Tris-HCl pH 8.0, 25 °C, 16 h; boiled enzyme as negative control
T2 construct: 672 residues, 76 kDa, cDNA 2072 bp
T2 sequence (A0A191JKR0 1-684): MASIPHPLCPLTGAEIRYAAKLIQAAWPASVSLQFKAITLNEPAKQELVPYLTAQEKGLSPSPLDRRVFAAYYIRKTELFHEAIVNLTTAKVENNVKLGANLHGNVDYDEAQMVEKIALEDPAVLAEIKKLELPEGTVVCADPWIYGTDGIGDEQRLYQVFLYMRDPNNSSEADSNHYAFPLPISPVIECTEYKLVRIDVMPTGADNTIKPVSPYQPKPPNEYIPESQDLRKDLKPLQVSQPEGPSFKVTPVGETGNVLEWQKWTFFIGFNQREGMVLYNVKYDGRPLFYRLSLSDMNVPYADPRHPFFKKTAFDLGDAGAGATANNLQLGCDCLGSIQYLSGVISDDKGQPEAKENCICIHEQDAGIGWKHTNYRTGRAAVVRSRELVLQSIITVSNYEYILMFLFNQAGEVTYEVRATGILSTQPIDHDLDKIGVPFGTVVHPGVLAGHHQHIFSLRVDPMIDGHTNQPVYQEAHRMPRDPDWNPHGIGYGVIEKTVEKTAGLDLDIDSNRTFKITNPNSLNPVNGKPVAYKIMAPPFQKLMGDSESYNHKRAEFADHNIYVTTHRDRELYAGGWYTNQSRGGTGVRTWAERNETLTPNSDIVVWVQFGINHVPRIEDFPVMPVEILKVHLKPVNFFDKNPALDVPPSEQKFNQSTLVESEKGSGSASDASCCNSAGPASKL

| SMILES | LC-MS detection of cadaverine (m/z 103) (CgLDC) | LC-MS detection of delta1-piperideine (m/z 84) (CgCAO) |
| --- | --- | --- |
| NCCCC[C@H](N)C(=O)O [L-lysine] | CgLDC catalyzed the conversion of L-lysine to cadaverine |  |
| NCCCCCN [cadaverine] |  | CgCAO converted cadaverine to 5-aminopentanal |
